Measured values taken from patent US4000160A, “Pyrrolyl oxyphenyl ketones” (Sterling Drug Inc., priority 1975, dated 1976).
Converted amounts (≈) assume the structure as drawn. Where two headings read alike, the source gives them in different places.

Columns and labels:
Format in all cases: cell-based
[1] = test system: Klebsiella pneumoniae 39645; experiment: in vitro antibacterial test (modified Autotiter method), minimum inhibitory concentration; conditions: organism C
Experimental: (§1) The antibacterial activity was determined using a modification of the Autotiter method described by Goss et al., Applied Microbiology, 16 (No. 9), 1414-1416 (1968) in which a 1000 mcg./ml. solution of the test compound is prepared. To the first cup of the Autotray is added 0.1 ml. of the test solution. Activation of the Autotiter initiates a sequence of operations by which 0.05 ml. of the test compound solution is withdrawn from this cup by a Microtiter transfer loop and diluted in 0.05 ml. of sterile semisynthetic medium (glucose). After this operation, 0.05 ml. of inoculated semisynthetic medium is added automatically to each cup. The overall operation results in final drug concentrations ranging from 500 to 0.06 mcg./ml. in twofold decrements. The Autotray is incubated for 18-20 hours at 37° C., at which time the trays are examined visually for growth as evidenced by turbidity, and the concentration of the last sample in the series showing no growth (or no turbidity) is recorded as the minimal inhibitory concentration (MIC). The compounds of formula I were thus found to be antibacterially effective against Staphylococcus aureus, Pseudomonas aeruginosa, Escherichia coli, and Proteus vulgaris at concentrations from 2 to 500 mcg./ml.
(§2) Data, expressed in terms of the minimum inhibitory concentration in mcg./ml., obtained in in vitro tests of the compounds of the invention in comparison with pyoluteorin against the bacterial organisms Staphylococcus aureus 209, Escherichia coli 198, Klebsiella pneumoniae 39645, Proteus vulgaris 9920, and Pseudomonas aeruginosa 211 (identified below as organisms A, B, C, D and E, respectively) are given in the table below.

Proteus vulgaris 9920 = experiment: as above
Experimental: as §1, §2

Escherichia coli 198 = experiment: as above
Experimental: as §1, §2

[2] = test system: Staphylococcus aureus 209; experiment: as above
Experimental: as §1, §2

[3] = test system: Pseudomonas aeruginosa 211; experiment: as above
Experimental: as §1, §2

Ceratocystis ulmi [4] = experiment: agar growth test, percent inhibition of Ceratocystis ulmi; conditions: 120 h, read-out: % Inhibition, Agar Growth
Experimental: (§3) The test procedures, the agar growth and shake culture tests, used to determine this latter activity are described as follows: In the agar growth test a solution of 2 mg. of the test compound in 2 ml. of acetone was prepared and 0.2 ml. of this solution was added via sterile glass pipette to 20 ml. of molten (42° C.) sterile potato dextrose agar. Mixing was accomplished by repeated inversion of the tube. The mixture was poured into a sterile Petri dish, allowed to solidify at room temperature, and then was inoculated by placing in the center of the agar-chemical mixture a section (3 mm. diameter) of agar permeated with the mycelium of Ceratocystis ulmi. The inoculated dish was incubated at 25° C. for 5 days when the diameter of growth was measured and compared to the growth which had occurred in a control culture. The percent inhibition was calculated as: [formula] In the shake culture test, a 0.2 ml. aliquot of an acetone solution of the test compound (2 mg. in 2 ml.) was added to 20 ml. of sterile potato dextrose broth in a sterile 250 ml. Erlenmeyer flask. The flask was stoppered with a plug of sterile cotton, and the mixture was shaken for one hour on a New Brunswick "Gyrotatary" shake table. The mixture was inoculated by addition of a section (3 mm. diameter) of agar permeated with the mycelium of Ceratocystis ulmi and returned to the shake table where shaking was continued for five days at room temperature. The optical density of the mixture was measured, using an uninoculated sample of the broth as a blank, and compared with a control sample. The percent inhibition was calculated as: […]
(§4) Data obtained for the compounds of the invention in in vitro tests against fungal organism, Ceratocystis ulmi, in the agar growth and shake culture tests in comparison with the known antibiotic, pyoluteorin, at a standard dilution of 10 parts per million are given in terms of percent inhibition in the table below. The compounds are identified by reference to the example number above where their preparation is described.

Ceratocystis ulmi [5] = experiment: shake culture test, percent inhibition of Ceratocystis ulmi; conditions: 120 h, read-out: % Inhibition, Shake Culture
Experimental: as §3, §4

[6] = organism D, Proteus vulgaris 9920, in vitro, read-out: minimum inhibitory concentration (MIC)
[7] = organism B, Escherichia coli 198, in vitro, read-out: minimum inhibitory concentration (MIC)
[8] = organism A, Staphylococcus aureus 209, in vitro, read-out: minimum inhibitory concentration (MIC)
[9] = organism E, Pseudomonas aeruginosa 211, in vitro, read-out: minimum inhibitory concentration (MIC)
[10] = 10 parts per million, agar, 25° C., 5 days
[11] = 10 parts per million, broth, room temperature, five days

Row | SMILES | MIC [1] [µg/mL] | MIC (Proteus vulgaris 9920; [6]) [µg/mL] | MIC (Escherichia coli 198; [7]) [µg/mL] | MIC [2, 8] [µg/mL] | MIC [3, 9] [µg/mL] | inhibition of growth at 10 µg/mL (Ceratocystis ulmi [4]; [10]) [%] | inhibition of growth at 10 µg/mL (Ceratocystis ulmi [5]; [11]) [%] | MIC (Proteus vulgaris 9920; Proteus vulgaris, 9920, read-out: minimum inhibitory concentration (MIC)) [µg/mL] | MIC (Escherichia coli 198; Escherichia coli, 198, read-out: minimum inhibitory concentration (MIC)) [µg/mL] | MIC ([2]; Staphylococcus aureus, 209, read-out: minimum inhibitory concentration (MIC)) [µg/mL] | MIC ([3]; Pseudomonas aeruginosa, 211, read-out: minimum inhibitory concentration (MIC)) [µg/mL] | inhibition of growth at 10 µg/mL (Ceratocystis ulmi [4]) [%] | inhibition of growth at 10 µg/mL (Ceratocystis ulmi [5]) [%]
1 | COc1ccc(C(=O)c2cc(Cl)c(Cl)[nH]2)c(OC)c1 [Example 1, 4,5-dichloropyrrol-2-yl 2,4-dimethoxyphenyl ketone] | > 125 | > 125 | > 125 | 62.5 (≈ 208 µM) | > 125 | 28 | 30 | – | – | – | – | – | –
2 | COc1ccc(OC)c(C(=O)c2cc(Br)c(Br)[nH]2)c1 [Example 2, 4,5-dibromopyrrol-2-yl 2,5-dimethoxyphenyl ketone] | > 125 | > 125 | > 125 | 31.3 (≈ 80.5 µM) | > 125 | 32 | 38 | – | – | – | – | – | –
3 | COc1ccc(C(=O)c2cc(Cl)c(Cl)[nH]2)cc1OC [Example 3, 4,5-dichloropyrrol-2-yl 3,4-dimethoxyphenyl ketone] | > 125 | > 125 | > 125 | > 125 | > 125 | 25 | 75 | – | – | – | – | – | –
4 | COc1ccc(OC)c(C(=O)c2cc(Cl)c(Cl)[nH]2)c1 [Example 4, 4,5-dichloropyrrol-2-yl 2,5-dimethoxyphenyl ketone] | > 125 | > 125 | > 125 | > 125 | > 125 | 48 | 72 | – | – | – | – | – | –
5 | O=C(c1cc(Br)c(Br)[nH]1)c1cc(O)ccc1O [Example 5, 4,5-dibromopyrrol-2-yl 2,5-dihydroxyphenyl ketone] | > 125 | 62.5 (≈ 173 µM) | 125 (≈ 346 µM) | 15.6 (≈ 43.2 µM) | 125 (≈ 346 µM) | 28 | 83 | – | – | – | – | – | –
6 | COc1ccc(C(=O)c2cc(Br)c(Br)[nH]2)cc1 [Example 6, 4,5-dibromopyrrol-2-yl 4-methoxyphenyl ketone] | > 125 | > 125 | > 125 | > 125 | > 125 | 11 | 66 | – | – | – | – | – | –
7 | COc1ccc(C(=O)c2cc(Cl)c(Cl)[nH]2)cc1 [Example 7, 4,5-dichloropyrrol-2-yl 4-methoxyphenyl ketone] | > 62.5 | 62.5 (≈ 231 µM) | 15.6 (≈ 57.8 µM) | > 31.6 | > 250 | 32 | 61 | – | – | – | – | – | –
8 | COc1cccc(C(=O)c2cc(Br)c(Br)[nH]2)c1 [Example 8, 4,5-dibromopyrrol-2-yl 3-methoxyphenyl ketone] | > 250 | 125 (≈ 348 µM) | 250 (≈ 696 µM) | 250 (≈ 696 µM) | > 125 | 28 | 75 | – | – | – | – | – | –
9 | O=C(c1cc(Cl)c(Cl)[nH]1)c1ccc(O)cc1O [Example 9, 4,5-dichloropyrrol-2-yl 2,4-dihydroxyphenyl ketone] | > 125 | > 125 | 31.3 (≈ 115 µM) | 3.9 (≈ 14.3 µM) | > 125 | 55 | 72 | – | – | – | – | – | –
10 | O=C(c1cc(Cl)c(Cl)[nH]1)c1cc(O)ccc1O [Example 10, 4,5-dichloropyrrol-2-yl 2,5-dihydroxyphenyl ketone] | 125 (≈ 459 µM) | 62.5 (≈ 230 µM) | 125 (≈ 459 µM) | 0.98 (≈ 3.6 µM) | 125 (≈ 459 µM) | 21 | 64 | – | – | – | – | – | –
11 | O=C(c1cc(Cl)c(Cl)[nH]1)c1c(O)cccc1O [Pyoluteorin, 4,5-dichloropyrrol-2-yl 2,6-dihydroxyphenyl ketone, reference compound] | – | – | – | – | – | – | – | 125 (≈ 459 µM) | 6.2 (≈ 22.8 µM) | 3.1 (≈ 11.4 µM) | 125 (≈ 459 µM) | 4 | 38
